{
  "source": "patent US6878689B2",
  "about": "“Preventives or remedies for heart failure” (Kaken Pharmaceutical Co., Ltd., priority 2000, dated 2005)",
  "system": "dogs with occluded anterior descending coronary artery",
  "assay": "Effect of intravenously administered pralmorelin on cardiac function of dog with anterior descending coronary artery occlusion",
  "assay_type": "in vivo",
  "conditions": "100 μg/kg i.v.",
  "protocol": "[Test Example 3] Effect of Intravenously Administered Pralmorelin on the Cardiac Function of Dog with a Model of Anterior Descending Coronary Artery Occlusion\nUsing a dog model of acute contractile dysfunction caused by occlusion of the anterior descending coronary artery, the inventors studied the cardiotonic action of pralmorelin.\nThe action of pralmorelin on the cardiac dysfunction deteriorated by occlusion of the coronary artery was evaluated by various hemodynamic parameters, cardiac output (CO), stroke volume (SV), maximal positive dP/dt of left ventricular pressure (+dP/dtmax), ejection fraction (EF), mean blood pressure (MBP), heart rate (HR), total peripheral resistance (TPR) and double product (RPP) as an index of myocardial oxygen consumption. • 1. Test Materials and Method • 1) Test Substance and Reagents • (1) Control\nPralmorelin dihydrochloride (hereunder referred to as KP-102) (prepared by the method described in WO 9304081) was dissolved in distilled water to prepare a 0.5 mg/mL solution. • (3) Reagents\nIn the experiment, adult beagles of either sex (weighing 9-11 kg) purchased from Nihon Nosan Kogyo K.K. (Kanagawa, Japan) were used. After arrival, the animals were allowed to eat a solid meal (CD-5, CLEA Japan, Inc. or Labo D Stock, Nark Corp.) and drink water in a room at a temperature of 20±2° C. and at a humidity of 55±15% under illumination for 12 hours a day (from 7:00 to 19:00); the animals were kept under these conditions for at least one week before use. • 3) Method of Measurement\nAnesthesia was introduced by intravenous administration of pentobarbital (30 mg/kg) and in order to maintain anesthesia, pentobarbital (5-6 mg/kg/hr) was injected continuously by means of an infusion pump (FP-W-100, Toyo Sangyo) through a polyethylene cannula retained in the right cephalic vein. The endotracheal cannula was inserted and the chest was opened at the left fourth intercostal space under artificial respiration in a tidal volume of 20 mL/kg at a rate of 18 breaths/min with an artificial respirator (SN-480-3 of Shinano Seisakusho). The left anterior descending coronary artery was carefully detached from the site of origin over a length of 1-2 cm and an occluding thread was passed through.\nThe chest was opened at the left fifth intercostal space and a 5-segment conductance catheter (CCS-108-DA, Unique Medical) was inserted from the cardiac apex so that all electrodes would be placed in the left ventricle. A catheter equipped with a 5 Fr microtip pressure transducer (pressure transducer catheter, Model MPC-500, MILLAR) was inserted into the left ventricle through the left carotid artery. The conductance catheter and the pressure transducer catheter inserted into the left ventricle were connected to a built-in amplifier in a ventricular volume-measuring instrument (Integral 3; VPR-1002, Unique Medical) and the changes in the left ventricular pressure (LVP) and the volume of the left ventricle were measured simultaneously. To determine the mean blood pressure (MBP), blood pressure was measured via a blood pressure amplifier (AP641G, Nihon Kohden) from the 5 Fr pressure transducer catheter inserted into the left femoral artery. Heart rate (HR) was measured with a cardiotachometer (AT-601G, Nihon Kohden) from the pulse waves of blood pressure.\nThe chest was opened again at the fourth intercostal space and in order to measure the cardiac output (CO(EMF)) (CO as determined by an electromagnetic blood flowmeter based method), a probe connected to an electromagnetic blood flowmeter (MFV-2100, Nihon Kohden) was fitted at the site of origin of the aorta. A spiral electrode was put in the ischemic region that occurred due to the occlusion of coronary artery and a surface electrocardiogram was recorded. A Doppler probe was fitted on the left anterior descending coronary artery and the blood flow was determined with a Doppler blood flowmeter (PD-20, Crystal Biotech). […]",
  "note": "Where a SMILES comes first, the peptide text is derived from it. [ ]: non-standard residue; d: D form. d2Nal = N[C@H](Cc1ccc2ccccc2c1)C(=O)O",
  "data": [
    {"smiles": "C[C@H](NC(=O)[C@@H](Cc1ccc2ccccc2c1)NC(=O)[C@@H](C)N)C(=O)N[C@@H](Cc1c[nH]c2ccccc12)C(=O)N[C@H](Cc1ccccc1)C(=O)N[C@@H](CCCCN)C(N)=O", "note": "[KP-102, D-alanyl-3-(naphthalen-2-yl)-D-alanyl-L-alanyl-L-tryptophyl-D-phenylalanyl-L-lysinamide] (H-[dA][d2Nal]AW[dF]K-NH2)", "values": [
      {"measurement": "change in LVEDP", "value": "Neither of the control and KP-102 groups showed changes in LVPsys and LVEDP"},
      {"measurement": "change in LVPsys", "value": "Neither of the control and KP-102 groups showed changes in LVPsys and LVEDP"},
      {"measurement": "change in double product (RPP), index of myocardial oxygen consumption", "value": "Neither group experienced a change in RPP"},
      {"measurement": "change in heart rate (HR)", "value": "Neither of MBP and HR changed"},
      {"measurement": "change in mean blood pressure (MBP)", "value": "Neither of MBP and HR changed"},
      {"measurement": "change in −dP/dtmax in comparison with control group", "value": "no significant change"},
      {"measurement": "increase in stroke volume (SV) from baseline before administration", "setting": "5 minutes after the administration, n=5, p<0.05 vs control", "value": 5, "unit": "%"},
      {"measurement": "maximum increase in cardiac output (CO) from baseline before administration", "setting": "10 minutes after the administration, n=5, p<0.05 vs control", "value": 7, "unit": "%"},
      {"measurement": "increase in +dP/dtmax from baseline before administration", "setting": "10 minutes after the administration, p<0.05 vs control for first 20 minutes", "value": 7, "unit": "%"},
      {"measurement": "maximal increase in ejection fraction (EF)", "setting": "in 10 minutes, significant vs control", "value": 10, "unit": "%"},
      {"measurement": "change in total peripheral resistance (TPR)", "setting": "p<0.05 vs control", "value": "dropped following the administration"}
    ]}
  ]
}
